Test systems include OVCAR-3 ovarian; NCI-H23 lung; SNB-19 CNS; A498 renal; MOLT-4 leukemia; SK-MEL-28 melanoma; CCRF-CEM leukemia; SF-539 CNS; IGROV1 ovarian; UACC-257 melanoma.
Test in all cases: DTP human tumour cell line panel, 48 h

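A five-concentration, 48-hour dose response in 96-well plates underlies each endpoint, interpolated linearly between surrounding concentrations. GI50 = concentration required for 50% inhibition of growth. At the TGI there is no net growth.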 Some results are limits rather than exact numbers.

For `C=C(CCCCC)CN1CCCC1[C@@](C)(O)CC(=O)OCC` (stereo not given in full), the TGI in the assay on OVCAR-3 ovarian, in the assay on NCI-H23 lung, with SNB-19 CNS, in the assay with A498 renal, in the assay with MOLT-4 leukemia and in the assay with SK-MEL-28 melanoma was over 100 µM throughout. Further, the TGI in the assay with CCRF-CEM leukemia, in the assay on SF-539 CNS, in the assay with IGROV1 ovarian and in the assay with UACC-257 melanoma was over 100 µM each time.

Take `CS(=O)(=O)N/N=C/CN1C(=O)c2ccccc2C1=O`: the TGI with OVCAR-3 ovarian, with NCI-H23 lung, with SNB-19 CNS, in the assay on A498 renal, in the assay on MOLT-4 leukemia and in the assay on SK-MEL-28 melanoma was over 100 µM throughout. Also, the TGI in the assay on CCRF-CEM leukemia, in the assay on SF-539 CNS, in the assay with IGROV1 ovarian and with UACC-257 melanoma was over 100 µM throughout.

As to `CCCCOC(=O)C1C(c2ccc(Cl)cc2)NC(c2ccc(Cl)cc2)C(C(=O)OCCCC)S1(=O)=O` (stereo not given), the TGI with OVCAR-3 ovarian, in the assay with NCI-H23 lung, in the assay on SNB-19 CNS, in the assay on A498 renal, in the assay with MOLT-4 leukemia and in the assay on SK-MEL-28 melanoma was over 100 µM each time. The TGI in the assay with CCRF-CEM leukemia, with SF-539 CNS, in the assay with IGROV1 ovarian and in the assay with UACC-257 melanoma was over 100 µM in each case.

For the compound `COC(=O)C12C3C4C1C1C2C3C41C(=O)OC(C)(C)C` (stereo not given), the concentration for total growth inhibition (TGI) in the assay on OVCAR-3 ovarian, with NCI-H23 lung, in the assay with SNB-19 CNS, in the assay with A498 renal, in the assay with MOLT-4 leukemia and with SK-MEL-28 melanoma was over 100 µM each time. Also, the TGI in the assay on CCRF-CEM leukemia, in the assay with SF-539 CNS, in the assay on IGROV1 ovarian and in the assay on UACC-257 melanoma was over 100 µM in each case.

As to `C=C(C=O)C1CCC2(C(=O)O)CCC3(C)C(CCC4C5(C)CCC(O)C(C)(C)C5CCC43C)C12` (stereo not given), the GI50 with OVCAR-3 ovarian is 1.44 µM; in the assay with NCI-H23 lung, 1.63 µM; in the assay with SNB-19 CNS, 8.18 µM; with A498 renal it was 4.77 µM; in the assay with MOLT-4 leukemia, 3.79 µM; with SK-MEL-28 melanoma, 1.96 µM. Moreover, the GI50 in the assay on CCRF-CEM leukemia was 2.68 µM; in the assay on SF-539 CNS it was 2.83 µM; in the assay on IGROV1 ovarian it was 1.92 µM; in the assay on UACC-257 melanoma, 2.05 µM. Further, the TGI with OVCAR-3 ovarian is 2.87 µM; with NCI-H23 lung, 3.3 µM; in the assay with SNB-19 CNS, 20.8 µM; in the assay on A498 renal, 14.4 µM; in the assay on MOLT-4 leukemia it was over 100 µM; with SK-MEL-28 melanoma it was 4.62 µM. The TGI with CCRF-CEM leukemia is over 46.6 µM; in the assay with SF-539 CNS, 8.06 µM; in the assay with IGROV1 ovarian, 4.21 µM; in the assay on UACC-257 melanoma, 5.48 µM.

Turning to `C=C(C=O)[C@@H]1C2OC(=O)C(=C)[C@@H]2CC(O)[C@@]1(C)CC` (stereo not given in full), the TGI in the assay with OVCAR-3 ovarian is 21.3 µM; in the assay with NCI-H23 lung, 13.3 µM; with SNB-19 CNS, over 89.7 µM; in the assay on A498 renal, 39.5 µM; with MOLT-4 leukemia, 9.08 µM; with SK-MEL-28 melanoma, 12.5 µM. Besides, the TGI in the assay on CCRF-CEM leukemia is 6.44 µM; in the assay on SF-539 CNS it was 23.6 µM; with IGROV1 ovarian, over 28.7 µM; with UACC-257 melanoma, 26.9 µM.

Take `Oc1ccc(Cl)cc1Cc1cc(Cl)cc(Cl)c1O`: the GI50 in the assay with OVCAR-3 ovarian is 2.83 µM; in the assay on NCI-H23 lung, 3.32 µM; with SNB-19 CNS, 3.83 µM; in the assay with A498 renal, 8.73 µM; with MOLT-4 leukemia, 5.52 µM; with SK-MEL-28 melanoma it was 4.83 µM. For the same compound, the GI50 with CCRF-CEM leukemia was 6.53 µM; in the assay on SF-539 CNS, 2.33 µM; in the assay with IGROV1 ovarian, 6.31 µM; in the assay with UACC-257 melanoma, 5.01 µM. For the same compound, the TGI with OVCAR-3 ovarian turned out to be 16.5 µM; in the assay with NCI-H23 lung, 10.6 µM; in the assay with SNB-19 CNS, 28.9 µM; in the assay on A498 renal, 29.2 µM; in the assay on MOLT-4 leukemia, 32.1 µM; in the assay on SK-MEL-28 melanoma it was 31.7 µM. Also, the TGI in the assay on CCRF-CEM leukemia turned out to be 88 µM; in the assay on SF-539 CNS it was 6.65 µM; in the assay with IGROV1 ovarian, 28.9 µM; in the assay with UACC-257 melanoma it was 32.5 µM.

Take `O=c1nc2occc2cn1C1CC(O)C(CO)O1` (stereo not given): the TGI in the assay on OVCAR-3 ovarian, with NCI-H23 lung, in the assay with SNB-19 CNS, in the assay with A498 renal, in the assay on MOLT-4 leukemia and with SK-MEL-28 melanoma was over 100 µM throughout. In addition, the TGI in the assay on CCRF-CEM leukemia, with SF-539 CNS, in the assay with IGROV1 ovarian and with UACC-257 melanoma was over 100 µM throughout.

As for `O=S(=O)([O-])c1ccc2c(c1)-c1nc-2nc2[n-]c(nc3nc(nc4[n-]c(n1)c1ccc(S(=O)(=O)[O-])cc41)-c1cc(S(=O)(=O)[O-])ccc1-3)c1ccc(S(=O)(=O)[O-])cc21.[Cu+2].[Na+]`, the GI50 in the assay with OVCAR-3 ovarian is over 28.3 µM; in the assay on NCI-H23 lung, 98.4 µM; in the assay with SNB-19 CNS, over 68.4 µM; with A498 renal it was over 100 µM; in the assay with MOLT-4 leukemia, 2.19 µM; in the assay on SK-MEL-28 melanoma, over 100 µM. Besides, the GI50 was 0.58 µM in the assay on CCRF-CEM leukemia, over 100 µM in the assay with SF-539 CNS, over 100 µM in the assay on IGROV1 ovarian and over 100 µM in the assay on UACC-257 melanoma. Besides, the TGI with OVCAR-3 ovarian, with NCI-H23 lung, in the assay with SNB-19 CNS, with A498 renal, in the assay with MOLT-4 leukemia and in the assay with SK-MEL-28 melanoma was over 100 µM throughout. The TGI in the assay with CCRF-CEM leukemia is over 39.5 µM; with SF-539 CNS, over 100 µM; in the assay on IGROV1 ovarian it was over 100 µM; with UACC-257 melanoma it was over 100 µM.

These data come from PubChem BioAssay (NCI).
